# Reference: EP0086256A1, “1-(2,4-Dichlorophenoxy)-3-(3,4-dimethoxy-beta-phenethylamino)-propan-2-0l, processes for its preparation and pharmaceutical compositions containing it” (VEB Arzneimittelwerk Dresden, priority 1981, dated 1983)
# Read-outs that look alike come from different tables or passages of the source.
# Experiments:
# β2-Rezeptoren der Gefäße [1] = test: Stimulating effects on vascular β2 receptors, comparison with the known 2,5-dichloro compound; settings: compared with the 2,4-Dichlor-Verbindung
# Description: 1-Phenoxy-3-alkylamino-propanole-(2) sind mehrfach beschrieben worden (DE-PS 2259 489, DE-PS 2213 044, DD-AP 45 360, BE-PS 783 086, NE-PS 6813 616, GD-PS 1148 563, NE-PS 7307 821, DD-AP 93 349, GB-PS 1078 852, BE-PS 746 107). Auch das 1-(2,5-Dichlor-phenoxy )-3-(3,4-dimethoxy-ß-phenethylamino)-propanol-(2) ist bekannt (JA-0 52033 829); es unterscheidet sich in seiner Wirksamkeit gegenüber der erfindungsgemäßen 2,4-Dichlor-Verbindung jedoch dadurch, daß die ausgeprügten stimulierenden Effekte an den β2-Rezeptoren der Gefäße, die eine große Bedeutung für den therapeutischen Einsatz besitzen, fehlen.
# β1-Rezeptoren [2] = test: Isoproterenol antagonism, lipolysis in epididymal fat; settings: Isoproterenolantagonismus, Propranolol = 100; Ratte
# β1-Rezeptoren [3] = test: Isoproterenol antagonism, intestinal peristalsis; settings: Isoproterenolantagonismus, Propranolol = 100; Kaninchen
# β1-Rezeptoren [4] = biological target: T1, β1-Rezeptoren (Canis lupus familiaris, UniProt P79148); test: β1 blockade, heart rate and contractility in the whole animal; assay type: in vivo; settings: Hund; relative to Propranolol
# T1 construct: from tissue; host or cells: dog, whole animal (heart)
# Description: (§1) Aus diesem Grunde ist die Anwendung von nichtselektiv wirkenden β-Rezeptorenblockern bei Patienten mit obstruktiven Atemwegserkrankungen kontraindiziert. Aber auch die Anwendung der sogenannten kardioselektiven ß-Rezeptorenblocker, z. […] Disposition des Patienten zur Dyspnoe führen bzw. einen Asthmaanfall auslösen können.
# β1-Rezeptoren [5] = biological target: T2, β1-Rezeptoren (Felis catus, UniProt Q9TST6); test: as above; assay type: in vivo; settings: Katze; relative to Propranolol
# T2 construct: from tissue; host or cells: cat, whole animal (heart)
# Description: as §1
# β2-Rezeptoren der Gefäße [6] = biological target: T3, β2-Rezeptoren der Gefäße (Canis lupus familiaris, UniProt P54833); test: Influence on the blood-pressure-lowering effect of isoproterenol; assay type: in vivo; settings: Hund
# T3 construct: from tissue; host or cells: dog, whole animal (blood vessels; bronchial muscle in the anaesthetised dog)
# Description: as §1
# β2-Rezeptoren der Gefäße [7] = biological target: T4, β2-Rezeptoren der Gefäße (Felis catus, UniProt Q9TST5); test: as above; assay type: in vivo; settings: Katze
# T4 construct: from tissue; host or cells: cat, whole animal (blood vessels)
# Description: as §1
# [8] = system: spontan hypertensive Ratte; test: Antihypertensive effect in the spontaneously hypertensive rat; assay type: in vivo; settings: fold stronger than Propranolol
# Description: as §1
# [9] = system: adrenergen β2-Rezeptoren der Bronchialmuskulatur; test: β2 stimulation of bronchial muscle, isolated tracheal muscle and whole animal; settings: am isolierten Trachealmuskel als auch im Ganztierversuch
# Description: as §1
# [10] = biological target: T5, adrenergen β2-Rezeptoren der Bronchialmuskulatur (Canis lupus familiaris, UniProt P54833); test: Respiratory minute volume in the anaesthetised dog; assay type: in vivo; settings: narkotisierter Hund; 0,1 mg/kg
# T5 construct: from tissue; host or cells: dog, whole animal (blood vessels; bronchial muscle in the anaesthetised dog)
# Description: as §1
# [11] = biological target: T6, adrenergen β2-Rezeptoren der Bronchialmuskulatur (Cavia porcellus, UniProt Q8K4Z4); test: Tolerance time to asthma-inducing histamine in the conscious guinea pig; assay type: in vivo, Meerschweinchen; settings: read-out: ED50, Verdopplung der Toleranzzeit gegenüber dem asthmaauslösenden Histamin
# T6 construct: from tissue; host or cells: conscious guinea pig, whole animal (airways)
# Description: as §1
# [12] = system: elektrischen Flimmerschwelle; test: Antiarrhythmic effect, rise of the electrical fibrillation threshold; assay type: in vivo, Meerschweinchen; settings: for ED50: Cavia porcellus, read-out: ED50, Erhöhung der elektrischen Flimmerschwelle
# Description: as §1
# [13] = system: Nikotintremor des Meerschweinchens; test: Nicotine tremor, antiparkinson effect; assay type: in vivo, Meerschweinchen; settings: compared with Trihexylphenidyl (Parkopan)
# Description: as §1
# in vivo = settings: mouse, ip
# Description: as §1
# [14] = system: Myokardinfarktmodell der Ratte; test: Myocardial infarction model, prophylactic oral dosing before coronary ligation; settings: relative to Propranolol; orale Applikation von 3,6 und 12 mg/kg I über 28 Tage vor Ligatur der A. coronaria sinistra; CPK, GOT, EKG-Veränderungen, relatives Infarktgewicht
# T6 sequence (Q8K4Z4 whole entry): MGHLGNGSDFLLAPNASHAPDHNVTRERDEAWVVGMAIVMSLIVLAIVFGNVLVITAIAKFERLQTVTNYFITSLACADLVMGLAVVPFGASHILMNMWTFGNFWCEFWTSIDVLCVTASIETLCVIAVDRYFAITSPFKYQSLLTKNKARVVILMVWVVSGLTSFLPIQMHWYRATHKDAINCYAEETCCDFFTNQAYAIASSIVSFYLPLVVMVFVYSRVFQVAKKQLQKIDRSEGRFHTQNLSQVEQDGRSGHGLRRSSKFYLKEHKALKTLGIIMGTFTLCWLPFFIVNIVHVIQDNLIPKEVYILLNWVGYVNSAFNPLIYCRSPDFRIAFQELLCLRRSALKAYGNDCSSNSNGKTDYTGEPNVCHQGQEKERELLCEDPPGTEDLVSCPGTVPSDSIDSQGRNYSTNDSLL
# T4 sequence (Q9TST5 whole entry): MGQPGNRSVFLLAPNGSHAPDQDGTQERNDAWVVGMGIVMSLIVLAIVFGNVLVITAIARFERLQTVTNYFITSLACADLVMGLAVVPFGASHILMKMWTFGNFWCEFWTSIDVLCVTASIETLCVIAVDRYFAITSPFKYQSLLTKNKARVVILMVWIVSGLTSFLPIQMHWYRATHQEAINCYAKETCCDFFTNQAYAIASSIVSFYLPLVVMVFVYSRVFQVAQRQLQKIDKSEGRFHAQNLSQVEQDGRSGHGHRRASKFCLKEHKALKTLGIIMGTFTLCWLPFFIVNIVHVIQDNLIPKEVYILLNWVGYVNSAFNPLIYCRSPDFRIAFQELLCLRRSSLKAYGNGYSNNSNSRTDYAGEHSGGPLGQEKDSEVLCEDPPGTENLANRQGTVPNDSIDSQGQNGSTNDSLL
# T1 sequence (P79148 whole entry): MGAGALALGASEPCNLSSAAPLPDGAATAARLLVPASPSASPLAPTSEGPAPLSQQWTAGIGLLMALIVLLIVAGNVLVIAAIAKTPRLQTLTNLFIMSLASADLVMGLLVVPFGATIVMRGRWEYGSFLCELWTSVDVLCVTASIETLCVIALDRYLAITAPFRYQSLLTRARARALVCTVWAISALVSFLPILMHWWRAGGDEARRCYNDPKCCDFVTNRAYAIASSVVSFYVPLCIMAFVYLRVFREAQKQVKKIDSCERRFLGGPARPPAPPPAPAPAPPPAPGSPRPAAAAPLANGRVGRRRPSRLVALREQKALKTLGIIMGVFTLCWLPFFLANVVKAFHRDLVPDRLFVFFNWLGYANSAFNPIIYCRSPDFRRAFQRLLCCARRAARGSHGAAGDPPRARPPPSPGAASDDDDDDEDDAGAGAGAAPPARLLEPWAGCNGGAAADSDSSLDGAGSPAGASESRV
# T2 sequence (Q9TST6 whole entry): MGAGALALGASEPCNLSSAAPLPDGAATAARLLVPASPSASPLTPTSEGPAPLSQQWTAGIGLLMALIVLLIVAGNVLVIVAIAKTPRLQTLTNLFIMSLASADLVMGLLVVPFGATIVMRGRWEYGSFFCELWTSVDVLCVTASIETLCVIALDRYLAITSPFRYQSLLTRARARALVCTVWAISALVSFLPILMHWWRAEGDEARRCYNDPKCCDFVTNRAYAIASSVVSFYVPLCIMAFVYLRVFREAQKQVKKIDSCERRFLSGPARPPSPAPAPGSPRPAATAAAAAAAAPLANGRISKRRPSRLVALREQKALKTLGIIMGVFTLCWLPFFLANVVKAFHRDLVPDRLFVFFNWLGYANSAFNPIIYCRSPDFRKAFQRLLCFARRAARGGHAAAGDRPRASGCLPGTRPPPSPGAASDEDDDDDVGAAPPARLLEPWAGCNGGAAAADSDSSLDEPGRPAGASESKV
# T5 sequence (P54833 whole entry): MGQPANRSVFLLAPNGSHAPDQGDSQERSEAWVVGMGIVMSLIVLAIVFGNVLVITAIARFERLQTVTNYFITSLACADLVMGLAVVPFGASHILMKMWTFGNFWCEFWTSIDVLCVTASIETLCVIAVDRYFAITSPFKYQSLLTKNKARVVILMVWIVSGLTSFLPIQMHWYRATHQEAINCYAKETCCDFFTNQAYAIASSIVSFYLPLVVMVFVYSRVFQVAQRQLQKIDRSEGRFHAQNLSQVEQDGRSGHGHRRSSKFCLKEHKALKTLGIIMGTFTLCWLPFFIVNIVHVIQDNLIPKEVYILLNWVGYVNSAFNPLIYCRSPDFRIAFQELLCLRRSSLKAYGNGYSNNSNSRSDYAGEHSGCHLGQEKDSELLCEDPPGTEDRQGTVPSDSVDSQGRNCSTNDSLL
# T3 sequence (P54833 whole entry): as above
compound,measurement,setting,value
"COc1ccc(CCNCC(O)COc2cc(Cl)ccc2Cl)cc1OC (stereo not shown) [1-(2,5-Dichlor-phenoxy)-3-(3,4-dimethoxy-ß-phenethylamino)-propanol-(2)]",stimulierende Effekte an den β2-Rezeptoren der Gefäße,β2-Rezeptoren der Gefäße [1],fehlen
"COc1ccc(CCNCC(O)COc2ccc(Cl)cc2Cl)cc1OC (stereo not drawn) [I, 1-(2,4-Dichlorphenoxy)-3-(3,4-dimethoxy-β-phenethylamino)-propanol-(2)]","Stärke der β1-Rezeptorenblockade, Lipolyse (Epiditymalfett)",β1-Rezeptoren [2],220
same,"Stärke der β1-Rezeptorenblockade, Darmperistaltik",β1-Rezeptoren [3],100
same,Wirksamkeit an den β1-Rezeptoren (Herzfrequenz und Kontralctilität am Ganztier),β1-Rezeptoren [4],nur halb so wirksam wie Propranolol
same,Wirksamkeit an den β1-Rezeptoren (Herzfrequenz und Kontralctilität am Ganztier),β1-Rezeptoren [5],nur halb so wirksam wie Propranolol
same,blutdrucksenkender Effekt des Isoproterenols,β2-Rezeptoren der Gefäße [6],Verstärkung der Isoproterenolwirkung
same,blutdrucksenkender Effekt des Isoproterenols,β2-Rezeptoren der Gefäße [7],Verstärkung der Isoproterenolwirkung
same,antihypertensiver Effekt,[8],~10
same,Stimulation der adrenergen β2-Rezeptoren der Bronchialmuskulatur,[9],nachweisen läßt
same,Atemzeitvolumen,[10],isoproterenolähnlichen Vergrößerung des Atemzeitvolumens
same,ED50,[11],0.76 mg/kg
same,ED50,[12]; Meerschweinchen,0.22 mg/kg
same,Antiparkinsonwirkung,[13],etwa die gleiche Antiparkinsonwirkung wie Trihexylphenidyl
same,LD50,in vivo,141 mg/kg
same,kardioprotektive Wirkung,[14],zweimal
"CC(C)NCC(O)c1ccc(O)c(O)c1 (stereo not shown) [Isoproterenol, reference compound]",ED50,[11],0.04 mg/kg
"CC(C)NCC(O)COc1cccc2ccccc12 (stereo not shown) [Propranolol, reference compound]",blutdrucksenkender Effekt des Isoproterenols,β2-Rezeptoren der Gefäße [7],aufhebt
same,ED50,[12]; Meerschweinchen,1.4 mg/kg
"CC(C)(C)NCC(O)COc1ccc(NC(=O)NC2CCCCC2)cc1 (stereo not shown) [Talinolol, reference compound]","Stärke der β1-Rezeptorenblockade, Lipolyse (Epiditymalfett)",β1-Rezeptoren [2],96
same,"Stärke der β1-Rezeptorenblockade, Darmperistaltik",β1-Rezeptoren [3],35
same,ED50,[12],0.31 mg/kg
Tachmalin,"ED50, Erhöhung der elektrischen Flimmerschwelle",[12]; Meerschweinchen,"0,71 mg/kg"
